From patent US20200085789A1, “USE OF A PROTEASOME INHIBITOR FOR THE TREATMENT OF CENTRAL NERVOUS SYSTEM (CNS) CANCERS” (Celgene International II Sàrl, priority 2017, published 2020)

Experiment: Adverse events and DLT, MRZ with TMZ and RT in newly diagnosed WHO Grade IV malignant glioma
Assay type: in vivo, human
Protocol: The clinical trial was a dose-escalation study (Stage 1, MRZ+TMZ+RT or MRZ+TMZ) consisting of two arms—concomitant and adjuvant—in each, MRZ added to standard of care at increasing IV doses in a 3+3 design, and a dose expansion study at RP2D (Stage 2, RP2D MRZ+TMZ+RT followed by RP2D MRZ+TMZ) first with concomitant and then with adjuvant standard of care.
In the experimental Stage 1 Concomitant Treatment (MRZ+TMZ+RT) Drug MRZ dose ranges from 0.55 mg/m^2 to 1.0 mg/m^2 given IV over 10 minutes on days 1, 8, 15, 29, and 36 during concomitant treatment. MRZ dose ranges from 0.55 to 1.0 mg/m^2 given IV over 10 minutes on Days 1, 8, 15 every 28 days during adjuvant treatment. TMZ will be administered once daily, 7 days/week, for 6 weeks, starting on Day 1, at a dose of 75 mg/m^2 during concomitant treatment. TMZ will be administered once daily on days 1-5 every cycle (28 day cycles, up to 12 cycles), dose range 150 to 200 mg/m^2 during adjuvant treatment. Radiation (RT) will be administered once daily 5 days/week, for 30 doses over 6 weeks to a total dose of 60 Gy, staring on Day 1 during concomitant treatment. Patients who complete concomitant treatment may continue on to adjuvant treatment, in the adjuvant cohort RT and TMZ treatment is received outside of protocol therapy.
In the experimental Stage 2 dose expansion 18 additional evaluable patients were enrolled in a cohort in which concomitant treatment (MRZ+TMZ+RT) is followed by adjuvant treatment (MRZ+TMZ) to confirm the MTD for each treatment regime as determined in the dose-escalation (Stage 1), and to assess preliminary activity of the recommended Phase 2 dose (RP2D, 0.8 mg/m^2). Table 44 and Table 45 give the treatment parameters of the present study and demographics of study participants.
Methods: Patients enrolled in separate concomitant (TMZ+RT+MRZ at 0.55, 0.7, 0.8, and 1.0 mg/m^2 dose levels DL) and adjuvant (TMZ+MRZ) cohorts in 3+3 design, followed by dose-expansion at the RD (concomitant followed by adjuvant). MRZ (10 min IV infusion): Concomitant (42 days (D), on D1, 8, 15, 29, 36; Adjuvant (28D-cycle) on D1, 8, 15.
Outcome Measures: Primary Outcome Measures: (1) Determine MRZ maximum tolerated dose (MTD) and recommended phase 2 dose (RP2D) for both concomitant treatment (MRZ+TMZ+RT) and adjuvant treatment (MRZ+TMZ). Time Frame: 42-day concomitant treatment and 28-day Cycle 1 adjuvant treatment. Description: Assess dose-limiting toxicities (DLTs) in each dose-escalation arm.
Methods: Patients enrolled in separate concomitant (TMZ/RT+MRZ) and adjuvant (TMZ+MRZ) treatment cohorts in dose-escalation (3+3 design, MRZ at 0.55, 0.7, 0.8, and 1.0 mg/m^2), followed by dose-expansion at the RD in concomitant followed by adjuvant treatment. MRZ (10 min IV infusion): Concomitant Day 1, 8, 15, 29, 36; Adjuvant (28D-cycle) Day 1, 8, 15.

[1] = Cohorts 1-3 0.55, 0.7, 0.8 mg/m^2 (21)
[2] = all grades, Cohort 2 0.7 mg/m^2 (9), concomitant and adjuvant combined
[3] = all grades, Cohort 3 0.8 mg/m^2 (6), concomitant and adjuvant combined
[4] = all grades, Cohort 4 1.0 mg/m^2 (12), concomitant and adjuvant combined
[5] = all grades, all dose-escalation cohorts 0.55-1.0 mg/m^2, N = 33, concomitant and adjuvant combined

SMILES: C[C@@]12OC(=O)[C@]1([C@@H](O)[C@@H]1C=CCCC1)NC(=O)[C@@H]2CCCl [MRZ, marizomib]
- Most common TEAEs (≥20% patients) (33 patients, dose-escalation): fatigue, nausea, vomiting, hallucination, ataxia, headache
- Anorexia, Total # Patients with Grade 3 Event: 0
- Ataxia, Total # Patients with Grade 3 Event: 3
- Confusion, Total # Patients with Grade 3 Event: 2
- Constipation, Total # Patients with Grade 3 Event: 0
- Diarrhea, Total # Patients with Grade 3 Event: 0
- Dizziness, Total # Patients with Grade 3 Event: 0
- Fatigue, Total # Patients with Grade 3 Event: 2
- Hallucination, Total # Patients with Grade 3 Event: 0
- Headache, Total # Patients with Grade 3 Event: 2
- Nausea, Total # Patients with Grade 3 Event: 0
- Vomiting, Total # Patients with Grade 3 Event: 0
- Anorexia, Total # Patients with Grade 3 Event [1]: 0
- Ataxia, Total # Patients with Grade 3 Event [1]: 1
- Confusion, Total # Patients with Grade 3 Event [1]: 0
- Constipation, Total # Patients with Grade 3 Event [1]: 0
- Diarrhea, Total # Patients with Grade 3 Event [1]: 0
- Dizziness, Total # Patients with Grade 3 Event [1]: 0
- Fatigue, Total # Patients with Grade 3 Event [1]: 5
- Hallucination, Total # Patients with Grade 3 Event [1]: 1
- Headache, Total # Patients with Grade 3 Event [1]: 0
- Nausea, Total # Patients with Grade 3 Event [1]: 0
- Vomiting, Total # Patients with Grade 3 Event [1]: 1
- patients with at least one Grade ≥3 TEAE (MRZ 0.7 mg/m^2, of 9 (Example 6)): 2
- patients with Grade 3 TEAEs (MRZ 0.7 mg/m^2, of 9, as of Feb. 1, 2018): 4
- patients with at least one Grade ≥3 TEAE (MRZ 0.8 mg/m^2, of 6 (Example 6)): 1
- patients with Grade 3 TEAEs (MRZ 0.8 mg/m^2, of 6, as of Feb. 1, 2018): 2
- patients with DLTs (MRZ 1.0 mg/m^2, concomitant and adjuvant): 5/12
- patients with at least one Grade ≥3 TEAE (MRZ 1.0 mg/m^2, of 12): 11
- tolerability (MRZ with SOC in ndGBM): well tolerated
- Anorexia, incidence of treatment-related adverse event [2]: 3
- Ataxia, incidence of treatment-related adverse event [2]: 1
- Confusion, incidence of treatment-related adverse event [2]: 4
- Constipation, incidence of treatment-related adverse event [2]: 6
- Diarrhea, incidence of treatment-related adverse event [2]: 2
- Dizziness, incidence of treatment-related adverse event [2]: 2
- Fatigue, incidence of treatment-related adverse event [2]: 8
- Hallucination, incidence of treatment-related adverse event [2]: 4
- Headache, incidence of treatment-related adverse event [2]: 3
- Nausea, incidence of treatment-related adverse event [2]: 4
- Vomiting, incidence of treatment-related adverse event [2]: 4
- Anorexia, incidence of treatment-related adverse event [3]: 2
- Ataxia, incidence of treatment-related adverse event [3]: 1
- Confusion, incidence of treatment-related adverse event [3]: 1
- Constipation, incidence of treatment-related adverse event [3]: 2
- Diarrhea, incidence of treatment-related adverse event [3]: 2
- Dizziness, incidence of treatment-related adverse event [3]: 1
- Fatigue, incidence of treatment-related adverse event [3]: 5
- Hallucination, incidence of treatment-related adverse event [3]: 2
- Headache, incidence of treatment-related adverse event [3]: 2
- Nausea, incidence of treatment-related adverse event [3]: 5
- Vomiting, incidence of treatment-related adverse event [3]: 4
- Anorexia, incidence of treatment-related adverse event [4]: 1
- Ataxia, incidence of treatment-related adverse event [4]: 4
- Confusion, incidence of treatment-related adverse event [4]: 3
- Constipation, incidence of treatment-related adverse event [4]: 4
- Diarrhea, incidence of treatment-related adverse event [4]: 1
- Dizziness, incidence of treatment-related adverse event [4]: 1
- Fatigue, incidence of treatment-related adverse event [4]: 8
- Hallucination, incidence of treatment-related adverse event [4]: 4
- Headache, incidence of treatment-related adverse event [4]: 4
- Nausea, incidence of treatment-related adverse event [4]: 5
- Vomiting, incidence of treatment-related adverse event [4]: 4
- Anorexia, treatment-related adverse event, total in parentheses [5]: Anorexia (8)
- Ataxia, treatment-related adverse event, total in parentheses [5]: Ataxia (8)
- Confusion, treatment-related adverse event, total in parentheses [5]: Confusion (9)
- Constipation, treatment-related adverse event, total in parentheses [5]: Constipation (11)
- Diarrhea, treatment-related adverse event, total in parentheses [5]: Diarrhea (7)
- Dizziness, treatment-related adverse event, total in parentheses [5]: Dizziness (6)
- Fatigue, treatment-related adverse event, total in parentheses [5]: Fatigue (26)
- Hallucination, treatment-related adverse event, total in parentheses [5]: Hallucination (11)
- Headache, treatment-related adverse event, total in parentheses [5]: Headache (10)
- Nausea, treatment-related adverse event, total in parentheses [5]: Nausea (17)
- Vomiting, treatment-related adverse event, total in parentheses [5]: Vomiting (12)
- RP2D / recommended dose (RD) of MRZ (with TMZ and RT (SOC), ndGBM): 0.8 mg/m^2
